# Experimental data reported in publication PMC4770307, “New Synthetic Routes to Triazolo-benzodiazepine Analogues: Expanding the Scope of the Bump-and-Hole Approach for Selective Bromo and Extra-Terminal (BET) Bromodomain Inhibition” (Journal of Medicinal Chemistry, 2015).
# Experiments:
# [1] = system: leucine/alanine mutant BET bromodomains; parameters: method as in PMID 25323695; details: cited from earlier work
# [2] = molecular target: T1, Brd2(2) (Homo sapiens, UniProt P25440); assay: Isothermal titration calorimetry (ITC); type: binding
# T1 construct: first bromodomain (e.g., Brd2(1)) versus second bromodomain (e.g., Brd2(2)); His6 (TEV-cleavable) (N); made in house; host or cells: E. coli BL21(DE3); plasmid a gift of the SGC Oxford
# [3] = molecular target: T2, Brd2(1) (Homo sapiens, UniProt P25440); assay: Differential scanning fluorimetry (DSF) thermal shift; type: binding; details: compound 10 μM (LightCycler480) or 30 μM (Mx3005P), read-out: Thermal stabilization (ΔTm)
# T2 construct: first bromodomain (e.g., Brd2(1)) versus second bromodomain (e.g., Brd2(2)); His6 (TEV-cleavable) (N); made in house; host or cells: E. coli BL21(DE3); plasmid a gift of the SGC Oxford
# [4] = molecular target: T3, Brd2(1)L110A (Homo sapiens, UniProt P25440, L110A); assay: Isothermal titration calorimetry (ITC); type: binding; details: ITC at 25 °C
# T3 construct: first bromodomain (e.g., Brd2(1)) versus second bromodomain (e.g., Brd2(2)); His6 (TEV-cleavable) (N); made in house; host or cells: E. coli BL21(DE3)
# [5] = molecular target: T4, Brd2(1)L110I (Homo sapiens, UniProt P25440, L110I); assay: Differential scanning fluorimetry (DSF) thermal shift; type: binding; details: compound 10 μM (LightCycler480) or 30 μM (Mx3005P), read-out: Thermal stabilization (ΔTm)
# T4 construct: first bromodomain (e.g., Brd2(1)) versus second bromodomain (e.g., Brd2(2)); His6 (TEV-cleavable) (N); made in house; host or cells: E. coli BL21(DE3)
# [6] = molecular target: T3, Brd2(1)L110A; assay: as above; type: binding; details: compound 10 μM (LightCycler480) or 30 μM (Mx3005P), read-out: Thermal stabilization (ΔTm)
# [7] = molecular target: T4, Brd2(1)L110I; assay: Isothermal titration calorimetry (ITC); type: binding; details: ITC at 25 °C
# [8] = molecular target: T5, Brd2(2)L383I (Homo sapiens, UniProt P25440, L383I); assay: Differential scanning fluorimetry (DSF) thermal shift; type: binding; details: compound 10 μM (LightCycler480) or 30 μM (Mx3005P), read-out: Thermal stabilization (ΔTm)
# T5 construct: first bromodomain (e.g., Brd2(1)) versus second bromodomain (e.g., Brd2(2)); His6 (TEV-cleavable) (N); made in house; host or cells: E. coli BL21(DE3)
# [9] = molecular target: T6, Brd2(2)L383A (Homo sapiens, UniProt P25440, L383A); assay: as above; type: binding; details: compound 10 μM (LightCycler480) or 30 μM (Mx3005P), read-out: Thermal stabilization (ΔTm)
# T6 construct: first bromodomain (e.g., Brd2(1)) versus second bromodomain (e.g., Brd2(2)); His6 (TEV-cleavable) (N); made in house; host or cells: E. coli BL21(DE3)
# [10] = molecular target: T5, Brd2(2)L383I; assay: Isothermal titration calorimetry (ITC); type: binding; details: ITC at 25 °C
# [11] = molecular target: T2, Brd2(1); assay: Isothermal titration calorimetry (ITC); type: binding
# [12] = molecular target: T6, Brd2(2)L383A; assay: Isothermal titration calorimetry (ITC); type: binding; details: ITC at 25 °C
# [13] = molecular target: T1, Brd2(2); assay: Differential scanning fluorimetry (DSF) thermal shift; type: binding; details: compound 10 μM (LightCycler480) or 30 μM (Mx3005P), read-out: Thermal stabilization (ΔTm)
# [14] = molecular target: T7, Brd2(1)V103A (Homo sapiens, UniProt P25440, V103A); assay: as above; type: binding; details: compound 10 μM (LightCycler480) or 30 μM (Mx3005P), read-out: Thermal stabilization (ΔTm)
# T7 construct: first bromodomain (e.g., Brd2(1)) versus second bromodomain (e.g., Brd2(2)); His6 (TEV-cleavable) (N); made in house; host or cells: E. coli BL21(DE3)
# [15] = molecular target: T8, Brd2(2)V376A (Homo sapiens, UniProt P25440, V376A); assay: as above; type: binding; details: compound 10 μM (LightCycler480) or 30 μM (Mx3005P), read-out: Thermal stabilization (ΔTm)
# T8 construct: first bromodomain (e.g., Brd2(1)) versus second bromodomain (e.g., Brd2(2)); His6 (TEV-cleavable) (N); made in house; host or cells: E. coli BL21(DE3)
# [16] = system: WT and mutant Brd2(1) and Brd2(2) proteins; assay: DSF, WT and mutant proteins (statements in words); type: binding; details: mutant compared with WT Brd2 proteins
# [17] = molecular target: T9, Brd2(1)W097F (Homo sapiens, UniProt P25440, W97F); assay: Differential scanning fluorimetry (DSF) thermal shift; type: binding; details: compound 10 μM (LightCycler480) or 30 μM (Mx3005P), read-out: Thermal stabilization (ΔTm)
# T9 construct: first bromodomain (e.g., Brd2(1)) versus second bromodomain (e.g., Brd2(2)); His6 (TEV-cleavable) (N); made in house; host or cells: E. coli BL21(DE3)
# [18] = molecular target: T10, Brd2(1)W097H (Homo sapiens, UniProt P25440, W97H); assay: as above; type: binding; details: compound 10 μM (LightCycler480) or 30 μM (Mx3005P), read-out: Thermal stabilization (ΔTm)
# T10 construct: first bromodomain (e.g., Brd2(1)) versus second bromodomain (e.g., Brd2(2)); His6 (TEV-cleavable) (N); made in house; host or cells: E. coli BL21(DE3)
# [19] = molecular target: T11, Brd2(2)W370H (Homo sapiens, UniProt P25440, W370H); assay: as above; type: binding; details: compound 10 μM (LightCycler480) or 30 μM (Mx3005P), read-out: Thermal stabilization (ΔTm)
# T11 construct: first bromodomain (e.g., Brd2(1)) versus second bromodomain (e.g., Brd2(2)); His6 (TEV-cleavable) (N); made in house; host or cells: E. coli BL21(DE3)
# [20] = molecular target: T12, Brd2(2)W370F (Homo sapiens, UniProt P25440, W370F); assay: as above; type: binding; details: compound 10 μM (LightCycler480) or 30 μM (Mx3005P), read-out: Thermal stabilization (ΔTm)
# T12 construct: first bromodomain (e.g., Brd2(1)) versus second bromodomain (e.g., Brd2(2)); His6 (TEV-cleavable) (N); made in house; host or cells: E. coli BL21(DE3)
# [21] = system: Brd2(2); assay: Isothermal titration calorimetry (ITC); type: binding; details: Brd2(2) over Brd2(1), from ITC Kd's
# [22] = molecular target: Brd4(1) (Homo sapiens, UniProt O60885); assay: Isothermal titration calorimetry (ITC); type: binding; details: ITC at 30 °C, […] DMSO
# [23] = molecular target: Brd4(2) (Homo sapiens, UniProt O60885); assay: Isothermal titration calorimetry (ITC); type: binding; details: ITC at 30 °C, […] DMSO
# [24] = molecular target: Brd2(2); details: reported Kd; cited from earlier work
# T12 sequence (P25440 344-453 W370F limits assumed): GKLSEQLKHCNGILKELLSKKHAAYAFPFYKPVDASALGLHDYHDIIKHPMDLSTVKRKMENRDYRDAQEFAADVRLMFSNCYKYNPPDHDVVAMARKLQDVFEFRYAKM
# T5 sequence (P25440 344-453 L383I limits assumed): as the sequence (P25440 344-453 W370F limits assumed) above, with F27W, L40I counted along it
# T3 sequence (P25440 74-180 L110A limits assumed): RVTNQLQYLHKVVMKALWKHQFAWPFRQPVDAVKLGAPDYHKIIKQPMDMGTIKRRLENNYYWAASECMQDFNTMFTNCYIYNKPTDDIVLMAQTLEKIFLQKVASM
# T6 sequence (P25440 344-453 L383A limits assumed): as the sequence (P25440 344-453 W370F limits assumed) above, with F27W, L40A counted along it
# T11 sequence (P25440 344-453 W370H limits assumed): as the sequence (P25440 344-453 W370F limits assumed) above, with F27H counted along it
# T2 sequence (P25440 74-180 limits assumed): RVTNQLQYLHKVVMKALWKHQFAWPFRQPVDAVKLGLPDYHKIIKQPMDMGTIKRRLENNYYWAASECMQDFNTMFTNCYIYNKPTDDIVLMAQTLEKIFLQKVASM
# T9 sequence (P25440 74-180 W97F limits assumed): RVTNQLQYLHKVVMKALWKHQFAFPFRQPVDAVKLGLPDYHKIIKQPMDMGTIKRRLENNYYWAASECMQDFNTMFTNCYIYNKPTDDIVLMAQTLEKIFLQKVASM
# T10 sequence (P25440 74-180 W97H limits assumed): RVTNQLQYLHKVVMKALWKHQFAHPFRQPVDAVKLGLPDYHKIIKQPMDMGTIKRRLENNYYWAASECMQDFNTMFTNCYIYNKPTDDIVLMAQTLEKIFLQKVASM
# T4 sequence (P25440 74-180 L110I limits assumed): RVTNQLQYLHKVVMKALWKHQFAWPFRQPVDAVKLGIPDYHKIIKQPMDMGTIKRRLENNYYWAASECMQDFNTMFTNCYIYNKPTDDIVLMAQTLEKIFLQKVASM
# T1 sequence (P25440 344-453 limits assumed): as the sequence (P25440 344-453 W370F limits assumed) above, with F27W counted along it
# T8 sequence (P25440 344-453 V376A limits assumed): as the sequence (P25440 344-453 W370F limits assumed) above, with F27W, V33A counted along it
# T7 sequence (P25440 74-180 V103A limits assumed): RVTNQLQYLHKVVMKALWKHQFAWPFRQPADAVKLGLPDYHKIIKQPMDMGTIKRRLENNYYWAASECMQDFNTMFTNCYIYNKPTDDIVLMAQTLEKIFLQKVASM
SMILES,ΔTm at 10 µM [3] [°C],ΔTm at 10 µM [13] [°C],ΔTm at 10 µM [17] [°C],ΔTm at 10 µM [18] [°C],ΔTm at 10 µM [19] [°C],ΔTm at 10 µM [20] [°C],also measured
CC[C@@H](C(=O)OC)[C@@H]1N=C(c2ccc(Cl)cc2)c2cc(OC)ccc2-n2c(C)nnc21 [ET (6)],,,,,,,"selectivity for L/A mutants relative to WT BET bromodomains, average ([1]; average across the entire subfamily): 160 fold; affinity for leucine/alanine mutant BET bromodomains ([1]; in words): low nanomolar affinity"
COC(=O)[C@H](C)[C@@H]1N=C(c2ccc(Cl)cc2)c2cc(OC)ccc2-n2c(C)nnc21 [ME],3.2 ± 0.2,5.6 ± 0.1,,,,,Kd ([2]; ITC at 25 °C): 0.3 ± 0.08 µM; ΔH (binding enthalpy) ([2]; ITC at 25 °C): –5.4 ± 0.1 kcal/mol; Kd [4]: 0.017 ± 0.004 µM; ΔH (binding enthalpy) [4]: –16.8 ± 0.2 kcal/mol; ΔTm at 10 µM [5]: 5.7 ± 0.7 °C; ΔTm at 10 µM [6]: 7.9 ± 0.2 °C; Kd [7]: 0.26 ± 0.04 µM; ΔH (binding enthalpy) [7]: –8.5 ± 0.1 kcal/mol; ΔTm at 10 µM [8]: 9.6 ± 0.1 °C; ΔTm at 10 µM [9]: 9.3 ± 0.2 °C; Kd [10]: 0.027 ± 0.012 µM; ΔH (binding enthalpy) [10]: –9.8 ± 0.1 kcal/mol; Kd ([11]; ITC at 25 °C): 1.47 ± 0.18 µM; ΔH (binding enthalpy) ([11]; ITC at 25 °C): –8.6 ± 0.2 kcal/mol; Kd [12]: 0.022 ± 0.004 µM; ΔH (binding enthalpy) [12]: –12.6 ± 0.1 kcal/mol
COC(=O)CC1N=C(c2ccc(Cl)cc2)c2cc(OC)cc(C)c2-n2c(C)nnc21 (stereo not drawn) [compound 15],0.7 ± 0.2,4 ± 0.1,,,,,ΔTm at 10 µM [14]: 0.5 ± 0.3 °C; ΔTm at 10 µM [15]: 1.2 ± 0.1 °C
COC(=O)[C@@H](C)[C@@H]1N=C(c2ccc(Cl)cc2)c2cc(OC)ccc2-n2c(C)nnc21 [compound 16],-0.3,0.2 ± 0.2,,,,,"thermal stabilization, in words [16]: did not induce a significant stabilization; ΔTm at 10 µM [6]: 1.6 ± 0.2 °C; ΔTm at 10 µM [8]: 0.3 ± 0.2 °C; ΔTm at 10 µM [9]: 0.8 ± 0.6 °C"
COC(=O)CC1N=C(c2ccc(Cl)cc2C)c2cc(OC)ccc2-n2c(C)nnc21 (stereo not drawn) [compound 24],6.3 ± 0.1,6.6 ± 0.2,1.4 ± 0.2,0.9 ± 0.3,1.1 ± 0.2,2.8 ± 0.1,
COC(=O)CC1N=C(c2ccc(Cl)c(C)c2)c2cc(OC)ccc2-n2c(C)nnc21 (stereo not drawn) [compound 25],1.5 ± 0.2,3.2 ± 0.1,-0.1,0.2 ± 0.2,1 ± 0.3,1.5,
COC(=O)CC1N=C(c2cc(C)ccc2C)c2cc(OC)ccc2-n2c(C)nnc21 (stereo not drawn) [compound 26],1.8 ± 0.2,3.5 ± 0.1,0.1 ± 0.2,-0.4,-0.1,0.6 ± 0.1,
COC(=O)CC1N=C(c2cc(Cl)ccc2Cl)c2cc(OC)ccc2-n2c(C)nnc21 (stereo not drawn) [compound 27],1.2 ± 0.2,2.5 ± 0.2,0,-0.4,-0.4,0.3,
COC(=O)CC1N=C(c2cccc3[nH]ccc23)c2cc(OC)ccc2-n2c(C)nnc21 (stereo not drawn) [compound 28],6.8 ± 0.6,7.7 ± 0.2,1.9 ± 0.5,0.6 ± 0.3,2.7 ± 0.4,5.2 ± 0.1,"selectivity for the second over the first bromodomain [21]: ca. 20 fold; Kd ([2]; ITC at 30 °C, […] DMSO): 0.045 µM; Kd [22]: 0.52 µM; Kd [23]: 0.05 µM; Kd ([11]; ITC at 30 °C, […] DMSO): 0.78 µM"
CC(=O)NCCCCn1c2c(c3ccccc31)C(=O)NCC2 [olinone],,,,,,,Kd [24]: > 300 µM
